This note sets out measurements from patent publication US9957297B2, “Template-fixed peptidomimetics as inhibitors of FPR1” (POLYPHOR AG, priority 2011, dated 2018).

The target of this assay is T1, FPR1 (Homo sapiens, UniProt P21462).
T1 construct: host or cells: CHO (PathHunter CHO-FPR1 β-arrestin cells)
T1 sequence (P21462 1-350): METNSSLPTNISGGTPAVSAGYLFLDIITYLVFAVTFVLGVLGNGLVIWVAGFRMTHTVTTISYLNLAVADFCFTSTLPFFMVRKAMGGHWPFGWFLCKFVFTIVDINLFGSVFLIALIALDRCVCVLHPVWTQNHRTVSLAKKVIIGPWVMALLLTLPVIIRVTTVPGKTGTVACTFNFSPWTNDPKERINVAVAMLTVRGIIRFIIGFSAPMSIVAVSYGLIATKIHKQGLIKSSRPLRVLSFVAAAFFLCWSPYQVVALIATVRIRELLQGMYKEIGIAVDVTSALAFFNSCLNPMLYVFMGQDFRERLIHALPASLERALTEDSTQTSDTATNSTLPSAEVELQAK
Description: FPR1 β-arrestin recruitment assay (PathHunter CHO-FPR1, antagonistic mode). It is filed as cell-based. The conditions noted are these: CHO FPR1 β-arrestin cells; antagonistic assay vs reference agonist fMLF at its EC80; 60 min preincubation. On the procedure:
2.2 FPR1 β-Arrestin Recruitment Assay
The PathHunter CHO—FPR1 (DiscoverX) assay was performed according to the manufacturer's protocol. In brief, CHO FPR1 β-arrestin cells were seeded at a density of 9000 cells per well in 20 μl of Ham's F12 medium (Invitrogen) in black 384-well culture plates and incubated overnight at 37° C. in a humidified atmosphere with 5% CO2. The next day, serial dilutions of the β-hairpin peptidomimetics of this invention have been prepared in DMSO and subsequently diluted in HBSS buffer supplemented with 20 mM Hepes and 0.1% BSA.
For antagonistic assay, 5 μl of compound solution or buffer was added to the cells with a final DMSO concentration of 0.5% (v/v). The plate was incubated for 60 min at 37° C. with 5% CO2 before addition of […] of the reference agonist fMLF peptide (Sigma-Aldrich) at its EC80 concentration. After 90 min of incubation at 37° C. with 5% CO2, 15 μl of beta-Glo detection reagent (Promega) were added. Reaction was developed for 20 min at room temperature and chemiluminescence was measured with a Victor2V (Perkin Elmer) luminescence reader.

Where a SMILES comes first, the peptide text is derived from it. Bridges are numbered along the chain shown (N, C = ends). [ ]: non-standard residue; d: D form.

What is called IC50 is the concentration needed to halve the response being measured. A low value points to inhibition by little substance. The compound `CC[C@H](C)[C@@H]1NC(=O)[C@H]([C@@H](C)O)NC(=O)[C@H](Cc2c[nH]c3ccccc23)NC(=O)[C@H]2CCCN2C(=O)CNC(=O)[C@H](Cc2c[nH]cn2)NC(=O)[C@@H]2CSSC[C@H](NC1=O)C(=O)N[C@@H](Cc1ccc(O)cc1)C(=O)N[C@@H](CCC(=O)O)C(=O)N[C@@H](CCCCN)C(=O)N[C@H](C)C(=O)N[C@@H](CCC(=O)O)C(=O)N[C@@H](Cc1ccc(O)cc1)C(=O)N[C@@H](Cc1c[nH]cn1)C(=O)N[C@@H](CCCCN)C(=O)N2` [compound 6, cyclo(-Tyr-His-Lys-Cys-His-Gly-^DPro-Trp-Thr-Ile-Cys-Tyr-Glu-Lys-^DAla-Glu-)] (cyclo(YHKCHG[dP]WTICYEK[dA]E); disulfide 4-11) showed an IC50 of 124 ± 10 nM.
